These results are taken from patent US11400102B2, “Treatment for bacterial infections with salicylic acid analogs” (priority 2019, dated 2022).

For series [1], the system named is yersiniabactin. Nature of the series: Mutasynthesis study: incorporation of variant salicylic acids into yersiniabactin (LC-MS). In kind it is cell-based, uropathogenic E. coli (UTI89ΔybtS). The method, then: FIG. 11 depicts the experimental protocol for the screening assay. […] a strain of uropathogenic E. coli (UTI89ΔybtS) that cannot produce endogenous salicylic acid but can be chemically complemented with salicylic acid in growth medium. […]+1% casamino acids (CAA) and 20 μM 2′,2′-dipyridyl (DP) were added along with a variety of variant salicylic acids (Table 1) bearing different moieties on carbons 3 to 6. The amount of Ypt in the sample was then quantified using LC-MS.
Walking around the Figure from bottom left: -LC-MS method called neutral loss, where any molecule that loses 187 mass units that are characteristic of yersiniabactin, -different metal species of yersiniabactin can be detected in the supernatant of a UTI89 culture; these have distinct retention times by liquid chromatography; confirm that the molecules contributing to this LC peak are a variant yersiniabactin with a fluorine by the mass.

In series [2] the test system is yersiniabactin biosynthesis. Put plainly: Culture screen of salicylate analogs for yersiniabactin (Fe-Ybt) in UTI89 supernatant by LC-MS. In kind it is cell-based, uropathogenic E. coli UTI89. As to conditions: Escherichia coli, read-out: yersiniabactin inhibition. An excerpt:
While investigating in vivo Ybt production in the mouse cystitis model, we observed that a salicylate synthase-deficient uropathogen (UTI89ΔybtS) produces Ybt at near-wild type levels (FIG. 6A). We biochemically connected this phenotype to a uropathogenic ability to scavenge low level urinary salicylate (of presumed dietary origin) (31) as a yersiniabactin biosynthetic substrate. Both human and mouse urine chemically complemented UTI89ΔybtS in this manner, showing that low micromolar salicylate accesses cytoplasmic siderophore biosynthetic enzymes. […] Active compounds could be further divided into those that inhibit the yersiniabactin biosynthetic activity and those that displace the native salicylate substrate, resulting in a variant form of yersiniabactin (vYbt) containing the modified salicylate ring (see fluorinated yersiniabactin in FIG. 6D). The latter process, termed mutasynthesis, has been described for the related pyochelin siderophore system in Pseudomonas (32).
UTI189 cultures were grown overnight in media supplemented with M63+DP+CAA and 50 μM of a salicylic acid analog. Supernatants were then examined for ferric-Ybt and the area of the MS-peak corresponding to that complex was measured. […] In many cases, a 5-fold or greater reduction was observed (FIG. 17).
As described in Example 10, a culture based screen of yersiniabactin biosynthetic inhibitor candidates was undertaken. The screening protocol is described in FIG. 20; E. coli were cultured in 96 well plates at 37° C. in the presence of various yersiniabactin inhibitor candidates. The yersiniabactin secretion in the media was measured using LC-MS using an internal standard (leucine encephalin). Bacterial growth, measured by optical density, was assessed for general toxicity and LC-MS quantification of enterobactin, a related but chemically and biochemically distinct, siderophore in medium at endpoint was measured for off-target activity.

For series [3], the system named is yersiniabactin production. Put plainly: Dose response of yersiniabactin production in UTI89 culture. In kind it is cell-based, Uropathogenic E. coli strain UTI89. The following applies: for EC50: Escherichia coli. As for the experimental part:
Three biological triplicate experiments were completed wherein the % Ybt was measured relative to untreated controls (UTI189Δ189 in 70% ETOH). […] The experimental details describing how Ybt was quantified (using mass spectrometry) and how samples were prepared and treated are described in Chaturvedi, K S et al. Nature chemical biology. 8.8(2012):731-736.
FIGS. 25 and 26 show the effect of 5-methyl salicylic acid on yersiniabactin production in an E. coli culture. In FIG. 25, a dose response curve of yersiniabactin synthesis in the presence of increasing concentrations of 5-methyl-salicylate is shown. Uropathogenic E. coli strain UTI89 were grown in low iron culture with the indicated concentrations of 5-methyl salicylate. Yersiniabactin content of culture supernatants was measured by LC-MS/MS relative to an internal standard. The EC50 was determined to be 0.89±0.10 μM. In FIG. 26 a representative mass spectra is depicted illustrating the presence of yersiniabactin fragments in untreated control (left panel) that are missing in media treated with 5-methyl salicylic acid (right panel).
Uropathogenic bacteria were again grown in low iron culture in the presence of varying concentrations of salicylic acid serivatives having different methylation positions.

Series [4] deals with yersiniabactin production. Nature of the series: Yersiniabactin and intermediates (HPT, Esn) in clinical urinary E. coli isolates. In kind it is cell-based. The following applies: 50 μM, FIGS. 30-33. The method, then:
The following clinical urinary E. coli isolates were chosen since they each secrete yersiniabactin: rUTI2, JMUSB64(490), JMUSB40(518), JMUSB115(530), JMUSB351(544), JMUB470(557), fCAUTI/B2 (sequence type ST131: ZZ13, ZZ15, ZZ16, ZZ18, ZZ22, and non ST131:ZZ23).
Specifically, HPT and escherichelin (Esn) were measured alongside the end product yersiniabactin. In addition, the production of enterobactin was measured as a counterscreen. In FIGS. 30-33, relative amounts of each analyte (HPT, Esn, Yrt) are depicted for each culture exposed to 50 μM of each inhibitor. A graph corresponding to reference UTI89 is reproduced in each figure (upper left).
There was negligible effect on enterobactin biosynthesis as well as less inhibition of biosynthetic precursors to yersiniabactin: HPT and HPTT. […] In this manner, HPTT/escherichelin production by E. coli may protect human hosts.

Series [5] deals with yersiniabactin production (YbtE). Put plainly: Aryl acid adenylating enzyme inhibitors: yersiniabactin production by UTI89. In kind it is cell-based, E. coli UTI89. As to conditions: AAAE inhibitors. An excerpt: (§1) Restored yersiniabactin biosynthesis in a salicylate synthase deletion mutant (UTI89ΔybtS) during UTI led us to evaluate the pathway's subsequent biosynthetic enzyme—the aryl acid adenylating enzyme (AAAE) YbtE—as a drug target. UTI89ΔybtE produced no detectable yersiniabactin at 1 day, 1 week or 2 weeks following inoculation and is furthermore less virulent than wild type UTI89, as evidenced by a fewer chronically infected mice, a notable result for a non-conserved gene (FIG. 7A). We evaluated YbtE and its enterobactin pathway equivalent EntE as candidate drug targets using a series of six rationally-designed, non-hydrolyzable nucleoside AAAE inhibitors from the laboratory of Courtney Aldrich (see collaboration letter).
To test whether interference with the downstream adenylating enzyme, YbtE, could also affect yersiniabactin production, a series of YbtE inhibitors were applied to cultures of UTI89 and the Fe-Ybt peak ratio measured (FIG. 19). UT189 was grown overnight in medium supplemented with M63, DP and CAA and 100 μM of the tested compounds. […] Therefore, the salicylic analogs may act to inhibit YbtE, rather than YbtS, in the biosynthetic pathway to reduce overall production of yersiniabactin.

For series [6], the system named is UPEC urinary growth. Nature of the series: Urinary growth assay in the presence of Lcn2. In kind it is cell-based, uropathogenic E. coli. The following applies: human urine. An excerpt: Both neutrophils and epithelial cells produce and secrete the soluble protein Lipocalin 2 (Lcn2) into the urine and bladder lumen. Lcn2 binds a wide range of […] and their ferric complexes, presumably restricting their availability to bacteria (28). We used purified Lcn2, human urine specimens, and our panel of UPEC siderophore mutants to determine whether siderophore systems counteract Lcn2's presumed bacteriostatic activity. […] We further discovered that this phenotype varies between individual urines such that urinary growth is strongly enterobactin-dependent in some (“restrictive” individuals) and less so in others (“permissive” individuals). We have related this to a distinctive urinary metabolomic biomarker profile (29) in these individuals. […]
Restored yersiniabactin biosynthesis in a salicylate synthase deletion mutant (UTI89ΔybtS) during UTI led us to evaluate the pathway's subsequent biosynthetic enzyme—the aryl acid adenylating enzyme (AAAE) YbtE—as a drug target. […] We evaluated YbtE and its enterobactin pathway equivalent EntE as candidate drug targets using a series of six rationally-designed, non-hydrolyzable nucleoside AAAE inhibitors from the laboratory of Courtney Aldrich (see collaboration letter).

The subject of series [7] is enterobactin production (EntE). Put plainly: Aryl acid adenylating enzyme inhibitors: enterobactin production by UTI89. In kind it is cell-based, E. coli UTI89. The following applies: AAAE inhibitors.
Text: as §1

Series [8] deals with enterobactin production. The following applies: FIG. 37.
Series [9] relates to yersiniabactin production. The following applies: FIG. 37.
Series [10] relates to Ybt-deficient (UTI89ΔybtS) culture. Nature of the series: Copper toxicity and Ybt cytoprotection in Ybt-deficient culture. As to conditions: 10 μM cupric sulfate.
Method: Growth was determined and expressed as total CFU ml^−1. […] For each patient, the difference in urinary and nonurinary strain growth is reported such that a positive value indicates prefential growth by the urinary isolate. In the four patients from whom multiple coincident urinary and nonurinary strains were recovered, the mean growth difference is reported. […] NS, nonsignificant, indicating P>0.05. […] Results are shown as mean±s.d.; n=3; *P<0.05, **P<0.01 and ***P<0.001.

The structures appear in SMILES notation. “Also recorded” adds a separate entry of the source. Read-outs that look alike come from different tables or passages of the source.

For the molecule `O=C(O)c1c(O)ccc2ccccc12` [2-hydroxy-1-naphthoic acid], the results for the “incorporation into variants of yersiniabactin” value in series [1] (listed as 2-hydroxy-1-naphoic acid) and in series [1] (listed as 2-hydroxy-1-nathoic acid) were “lack of incorporation” and “not incorporated”, respectively.

Consider `O=C(O)c1ccc(Cl)cc1O` [4-chlorosalicylic acid], for which the inhibition at 50 µM in series [2] is > 90%.

On to `O=C(O)c1cc(F)ccc1O` [5-fluorosalicylic acid], for which, in series [1], the “incorporation into variants of yersiniabactin” value is “incorporated; also recorded: incorporation”.

As for `Cc1ccc(O)c(C(=O)O)c1` [5-methylsalicylic acid], the EC50 in series [3] (read-out: EC50, % Ybt relative to untreated controls) is ~1.9 µM; in series [3] (read-out: EIC, inhibits biosynthesis in culture) it was ~2 µM; in series [3] (UTI89, low iron culture, LC-MS/MS, FIG. 25, read-out: EC50, yersiniabactin content of culture supernatants) it was 0.89 ± 0.1 µM. Besides, in series [4], the “order of yersiniabactin inhibition, most potent to least potent” value was “most potent”. For the same molecule, in series [4], the “yersiniabactin expression in a variety of strains” value is “very effective”. Further, in series [2], the inhibition at 50 µM was > 90%.

For `O=C(O)c1c(O)cccc1F` [6-fluorosalicylic acid], the “order of yersiniabactin inhibition, most potent to least potent” value in series [4] is “least potent”. The inhibition at 50 µM in series [2] was > 90%.

As to `Cc1cccc(O)c1C(=O)O` [6-methylsalicylic acid], the “yersiniabactin inhibitory activity, dose response” value in series [3] (low iron culture, methylated salicylic acids, FIG. 27) was “limited activity”. In addition, the inhibition at 50 µM in [2] was > 90%.

Consider `Nc1ncnc2c1ncn2[C@@H]1O[C@H](COS(=O)(=O)NC(=O)c2cccc(O)c2O)[C@@H](O)[C@H]1O` [DHB-AMS], for which the “yersiniabactin production by UTI89” value in series [5] is “completely inhibiting”. Also, the “phenotype in the urinary growth assay” value in series [6] was “mimicked an enterobactin biosynthesis mutant phenotype”. In series [7], the “enterobactin production by UTI89” value was “completely inhibiting”.

With `Nc1ncnc2c1ncn2[C@@H]1O[C@H](COS(=O)(=O)NC(=O)c2ccccc2O)[C@@H](O)[C@H]1O` [Sal-AMS], the “yersiniabactin production by UTI89” value in [5] is recorded as “completely inhibiting”. In series [7], the “enterobactin production by UTI89” value was “completely inhibiting”.

For `COc1cc(Cc2cnc(N)nc2N)cc(OC)c1OC` [TMP, trimethoprim], in series [8], the enterobactin production entry was “not”. Moreover, the yersiniabactin production entry in [9] was “markedly decrease”.

As for `O=S(=O)([O-])[O-].[Cu+2]` [copper, cupric sulfate], the decrease in viability in series [10] is > 3 log CFU ml^−1.
